Type in all cases: biochemical
Assay [1] addresses T1, BTK-WT (Homo sapiens, UniProt Q06187).
T1 construct: purified from insect cells as a full-length construct containing an N-terminal 6X-His tag; His6 (N); made in house; host or cells: insect cells (baculovirus Sf21 in Method B)
Description: Btk in vitro inhibitory activity (one of Method A TR-FRET, Method B electrophoretic mobility shift, Method C radiometric filter binding). To be noted: D-compounds panel data; read-out: IC50 BTK-WT.

Assay [2] addresses LCK (Homo sapiens, UniProt P06239). Nature of the assay: Inhibition of a panel of kinases, in vitro HotSpot kinase assay: LCK. As to conditions: D-compounds panel data; 1 μM ATP; read-out: IC50 LCK.
The target of assay [3] is EGFR (Homo sapiens, UniProt P00533). Description: Inhibition of a panel of kinases, in vitro HotSpot kinase assay: EGFR. To be noted: D-compounds panel data; 1 μM ATP. As for the experimental part:
(§1) The degree of inhibition of a panel of kinases is determined using the in vitro HotSpot kinase assay (purified enzymes, ^33P-ATP, an appropriate substrate and 1 μM ATP).

Assay [4] addresses SRC (Homo sapiens, UniProt P12931). Nature of the assay: Inhibition of a panel of kinases, in vitro HotSpot kinase assay: SRC. As to conditions: D-compounds panel data; 1 μM ATP. As for the experimental part: as §1
Assay [5] concerns the target T2, TEC (Homo sapiens, UniProt P42680).
T2 sequence (P42680 1-631): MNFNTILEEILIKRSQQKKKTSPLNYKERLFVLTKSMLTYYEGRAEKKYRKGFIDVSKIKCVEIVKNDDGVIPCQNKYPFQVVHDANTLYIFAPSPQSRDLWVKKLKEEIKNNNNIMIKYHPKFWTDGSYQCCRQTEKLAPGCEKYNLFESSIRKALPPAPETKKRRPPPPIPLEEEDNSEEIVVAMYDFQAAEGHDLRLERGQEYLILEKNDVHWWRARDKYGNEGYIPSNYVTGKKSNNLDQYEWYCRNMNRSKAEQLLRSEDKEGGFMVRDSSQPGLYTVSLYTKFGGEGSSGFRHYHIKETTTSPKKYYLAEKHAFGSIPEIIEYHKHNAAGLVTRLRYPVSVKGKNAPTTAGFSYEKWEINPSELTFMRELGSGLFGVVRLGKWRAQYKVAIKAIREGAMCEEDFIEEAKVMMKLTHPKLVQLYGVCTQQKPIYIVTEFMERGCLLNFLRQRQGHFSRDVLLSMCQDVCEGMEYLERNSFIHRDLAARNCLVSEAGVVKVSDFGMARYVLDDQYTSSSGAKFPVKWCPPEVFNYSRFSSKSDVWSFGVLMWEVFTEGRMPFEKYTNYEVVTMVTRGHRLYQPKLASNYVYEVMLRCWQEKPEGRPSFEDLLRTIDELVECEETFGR
Description: Inhibition of a panel of kinases, in vitro HotSpot kinase assay: TEC. As to conditions: D-compounds panel data; 1 μM ATP. As for the experimental part: as §1

The text below walks through data of patent US20210070748A1, “INHIBITORS OF BRUTONS TYROSINE KINASE” (Pharmacyclics LLC, priority 2015, published 2021).

T1 sequence (Q06187 whole entry): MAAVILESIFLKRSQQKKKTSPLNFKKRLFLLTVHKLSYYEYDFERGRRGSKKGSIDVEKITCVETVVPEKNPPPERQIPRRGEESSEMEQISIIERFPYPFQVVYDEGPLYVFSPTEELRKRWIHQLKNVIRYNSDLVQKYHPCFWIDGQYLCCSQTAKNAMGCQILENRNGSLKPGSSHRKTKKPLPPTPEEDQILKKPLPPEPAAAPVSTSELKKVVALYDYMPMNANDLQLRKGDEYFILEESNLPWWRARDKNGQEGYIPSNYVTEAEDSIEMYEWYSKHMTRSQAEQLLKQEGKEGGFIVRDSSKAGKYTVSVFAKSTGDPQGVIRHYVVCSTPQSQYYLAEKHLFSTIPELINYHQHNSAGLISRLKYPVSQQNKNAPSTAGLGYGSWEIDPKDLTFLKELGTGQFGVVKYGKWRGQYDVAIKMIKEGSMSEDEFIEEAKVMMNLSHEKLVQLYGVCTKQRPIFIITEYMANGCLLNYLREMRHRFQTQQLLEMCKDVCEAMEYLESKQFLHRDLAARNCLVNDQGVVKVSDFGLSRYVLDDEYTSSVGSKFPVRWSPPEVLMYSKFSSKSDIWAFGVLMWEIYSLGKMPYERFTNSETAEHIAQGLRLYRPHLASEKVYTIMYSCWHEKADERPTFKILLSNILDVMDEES
Sequence of LCK (P06239 whole entry): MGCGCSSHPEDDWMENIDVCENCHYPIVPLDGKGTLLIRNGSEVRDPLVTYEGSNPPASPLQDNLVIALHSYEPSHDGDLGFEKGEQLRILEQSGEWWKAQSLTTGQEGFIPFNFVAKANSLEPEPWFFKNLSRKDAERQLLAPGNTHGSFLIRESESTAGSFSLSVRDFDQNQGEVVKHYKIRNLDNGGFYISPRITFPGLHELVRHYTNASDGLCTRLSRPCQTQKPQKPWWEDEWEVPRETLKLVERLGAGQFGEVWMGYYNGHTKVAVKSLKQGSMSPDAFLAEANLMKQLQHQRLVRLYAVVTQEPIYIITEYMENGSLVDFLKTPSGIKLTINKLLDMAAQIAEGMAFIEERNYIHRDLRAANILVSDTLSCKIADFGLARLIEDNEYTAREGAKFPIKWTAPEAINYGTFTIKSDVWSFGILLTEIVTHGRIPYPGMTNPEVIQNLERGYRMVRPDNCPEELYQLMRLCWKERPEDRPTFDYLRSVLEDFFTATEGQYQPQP
Sequence of SRC (P12931 whole entry): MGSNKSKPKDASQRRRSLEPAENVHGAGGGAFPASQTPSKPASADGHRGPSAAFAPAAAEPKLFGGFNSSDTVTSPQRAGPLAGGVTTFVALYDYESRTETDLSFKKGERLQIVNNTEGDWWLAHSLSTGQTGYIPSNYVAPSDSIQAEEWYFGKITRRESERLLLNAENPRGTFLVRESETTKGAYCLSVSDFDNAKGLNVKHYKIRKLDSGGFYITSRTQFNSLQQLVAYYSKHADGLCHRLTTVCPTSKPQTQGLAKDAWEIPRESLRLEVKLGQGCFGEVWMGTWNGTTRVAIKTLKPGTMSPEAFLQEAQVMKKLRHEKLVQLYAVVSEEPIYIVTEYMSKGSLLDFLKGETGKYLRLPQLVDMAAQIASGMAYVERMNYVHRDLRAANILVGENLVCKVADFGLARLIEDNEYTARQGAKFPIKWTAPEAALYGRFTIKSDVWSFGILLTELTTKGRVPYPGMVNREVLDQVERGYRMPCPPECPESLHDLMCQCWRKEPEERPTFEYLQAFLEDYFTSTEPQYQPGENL
Sequence of EGFR (P00533 25-1210): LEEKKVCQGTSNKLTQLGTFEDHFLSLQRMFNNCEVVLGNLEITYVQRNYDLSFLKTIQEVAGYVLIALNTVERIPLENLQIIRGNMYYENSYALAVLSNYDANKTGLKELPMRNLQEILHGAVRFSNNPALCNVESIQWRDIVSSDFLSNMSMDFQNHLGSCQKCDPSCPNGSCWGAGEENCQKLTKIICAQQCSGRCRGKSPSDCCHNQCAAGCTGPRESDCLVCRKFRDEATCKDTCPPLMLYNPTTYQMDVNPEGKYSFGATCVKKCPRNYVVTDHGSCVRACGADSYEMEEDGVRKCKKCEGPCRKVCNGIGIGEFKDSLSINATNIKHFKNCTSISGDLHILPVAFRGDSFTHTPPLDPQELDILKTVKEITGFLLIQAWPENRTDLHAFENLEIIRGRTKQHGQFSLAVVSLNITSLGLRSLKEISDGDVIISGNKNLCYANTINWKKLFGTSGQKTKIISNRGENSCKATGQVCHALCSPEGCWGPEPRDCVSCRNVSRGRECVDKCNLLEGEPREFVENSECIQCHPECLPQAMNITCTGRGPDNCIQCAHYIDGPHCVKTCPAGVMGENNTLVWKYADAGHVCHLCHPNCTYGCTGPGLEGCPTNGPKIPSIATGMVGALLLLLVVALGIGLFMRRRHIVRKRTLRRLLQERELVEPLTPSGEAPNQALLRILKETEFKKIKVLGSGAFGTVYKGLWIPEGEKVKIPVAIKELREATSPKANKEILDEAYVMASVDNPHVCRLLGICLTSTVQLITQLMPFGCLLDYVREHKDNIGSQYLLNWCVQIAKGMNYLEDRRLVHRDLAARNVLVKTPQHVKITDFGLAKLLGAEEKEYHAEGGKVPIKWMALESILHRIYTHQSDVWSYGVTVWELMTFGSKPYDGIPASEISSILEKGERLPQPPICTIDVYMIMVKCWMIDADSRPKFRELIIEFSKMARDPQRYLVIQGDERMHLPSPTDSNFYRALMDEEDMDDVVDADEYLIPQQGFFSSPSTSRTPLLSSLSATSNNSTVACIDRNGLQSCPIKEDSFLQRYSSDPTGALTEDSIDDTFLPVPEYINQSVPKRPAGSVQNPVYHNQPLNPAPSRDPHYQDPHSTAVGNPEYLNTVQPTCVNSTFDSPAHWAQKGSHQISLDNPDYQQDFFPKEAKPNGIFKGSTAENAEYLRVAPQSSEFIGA

Regarding `CN(C)C(=O)N[C@H]1CCCN(c2cnc(C(N)=O)c(Nc3ccc(C4(C)CCN(C5CCCC5)CC4)cc3)n2)[C@@H]1CO` [Example D-61, 3-{[4-(1-cyclopentyl-4-methylpiperidin-4-yl)phenyl]amino}-5-[(2S,3S)-3-[(dimethylcarbamoyl)amino]-2-(hydroxymethyl)piperidin-1-yl]pyrazine-2-carboxamide], the half-inhibitory concentration (IC50) in assay [1] is 100 to 1000 nM; in assay [2], 1000 to 10000 nM; in assay [3] it was over 10000 nM; in assay [4] it was 1000 to 10000 nM; in assay [5], over 10 µM.
Consider `C[C@@H]1[C@H](NC(=O)c2ccc(C(C)(C)O)nc2)CCCN1c1cnc(C(N)=O)c(Nc2cnn(C)c2)n1` [Example D-40, 5-[(2R,3R)-3-[6-(2-hydroxypropan-2-yl)pyridine-3-amido]-2-methylpiperidin-1-yl]-3-[(1-methyl-1H-pyrazol-4-yl)amino]pyrazine-2-carboxamide], for which the 50% inhibitory concentration (IC50) in assay [1] is at most 10 nM; in assay [2], 10 to 100 nM; in assay [3] it was 100 to 1000 nM; in assay [4], 10 to 100 nM; in assay [5], at most 0.01 µM.
